Test results: US4666890A, “Peptide, process for preparation thereof and use thereof” (priority 1978, dated 1987)

Tests used:
[1] = system: mice; assay: Acute toxicity in mice; type: in vivo; settings: 1 g/kg (i.v.)
Description: ACUTE TOXICITY IN MICE of FR-900156
1 g/kg (i.v.): no toxicity.

[2] = system: Mice (DDY male 5-6 W); assay: Blood stream clearance of carbon; type: in vivo
Procedure: 1. Carbon suspension. Rotoring drawing ink (170 mg carbon/ml.) was diluted to 1/5 of the original concentration in saline containing 1% gelatin.
2. 0.1% aqueous sodium carbonate solution.
Mice (DDY male 5-6 W) were injected via the tail vein with a dose of 0.01 ml/g body weight of carbon. Blood samples were taken by means of a pointed capillary pippet calibrated to hold a 50 μl and previously washed in heparin. This was plunged into the retrooribital venous sinus at the nasal angle of the eye. The samples were removed at 3 and 6 min. The blood was immediately discharged into 3.0 ml. of the sodium carbonate solution. This hemolyszed the blood and allowed the quantitation of carbon. The samples were then read in a spectrophotometer at 660 nm, the log concentration being obtained from a previously determined standard curve. The clearance value K may be determined by plotting log carbon concentration against time according to the following relationship; [formula] in which T1 and T2 represent the time in min when the sample were withdrawn and C1 and C2 represent the concentrations of carbon in the blood at the time T1 and T2, respectively.
The aqueous solution of the test compound as given was administered subcutaneously to mice. Twenty four hours later, blood stream clearance of carbon was measured. K value obtained with treated mice was compared with that of control mice.

| Structure (SMILES) | Acute toxicity in mice [1] | Ktreated /Kcontrol ([2]; dose 1 mg/mouse) | Ktreated /Kcontrol ([2]; dose 10 mg/mouse) |
| --- | --- | --- | --- |
| C[C@H](NC(=O)[C@@H](C)O)C(=O)N[C@H](CCC(=O)N[C@@H](CCC[C@@H](N)C(=O)O)C(=O)NCC(=O)O)C(=O)O [FR-900156 substance] | no toxicity |  |  |
| c1ccc([C@H]2CN3CCSC3=N2)cc1 [Levamisol] |  | 0.5 | death |
